Source: ChEMBL document CHEMBL1201861, “Genomics of Drug Sensitity in Cancer screening data, Wellcome Trust Sanger Institute”

Columns and labels:
Test in all cases: cells
Settings in all cases: Homo sapiens
[1] = system: LoVo; assay type: functional, cell-based;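 note: growth inhibition of human LoVo cells, read out with a cell viability assay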
Description: SANGER: Inhibition of human LoVo cell growth in a cell viability assay.

[2] = system: NCI-H1651; assay type: functional, cell-based;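 note: Read-out is a cell viability assay, with IC50 expressing inhibition of NCI-H1651 cell growth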
Description: SANGER: Inhibition of human NCI-H1651 cell growth in a cell viability assay.

[3] = system: OE19; assay type: functional, cell-based;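 note: growth inhibition of OE19 cells, measured through a cell viability read-out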
Description: SANGER: Inhibition of human OE19 cell growth in a cell viability assay.

[4] = system: SNU-423; assay type: functional, cell-based
Description: SANGER: Inhibition of human SNU-423 cell growth in a cell viability assay.

[5] = system: SCC-4; assay type: functional, cell-based;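 note: growth inhibition of human SCC-4 cells, read out as cell viability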
Description: SANGER: Inhibition of human SCC-4 cell growth in a cell viability assay.

[6] = system: EFO-27; assay type: functional, cell-based;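 note: growth inhibition of EFO-27 cells, read out with a cell viability assay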
Description: SANGER: Inhibition of human EFO-27 cell growth in a cell viability assay.

[7] = system: M059J; assay type: functional, cell-based;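 note: growth inhibition of M059J cells, read out with a cell viability assay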
Description: SANGER: Inhibition of human M059J cell growth in a cell viability assay.

[8] = system: SW948; assay type: functional, cell-based;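 note: growth inhibition of SW948 cells, read out with a cell viability assay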
Description: SANGER: Inhibition of human SW948 cell growth in a cell viability assay.

[9] = system: CAL-72; assay type: functional, cell-based;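 note: cell viability assay measuring inhibition of proliferation in the CAL-72 cell line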
Description: SANGER: Inhibition of human CAL-72 cell growth in a cell viability assay.

[10] = system: SW1573; assay type: functional, cell-based;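 note: growth inhibition of SW1573 cells, read out with a cell viability assay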
Description: SANGER: Inhibition of human SW1573 cell growth in a cell viability assay.

[11] = system: D-392MG; assay type: functional, cell-based
[12] = system: CFPAC-1; assay type: functional, cell-based;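 note: cell viability readout used to gauge suppression of CFPAC-1 cell proliferation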
Description: SANGER: Inhibition of human CFPAC-1 cell growth in a cell viability assay.

[13] = system: HCC1395; assay type: functional, cell-based;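 note: growth inhibition of HCC1395 cells, read out by a cell viability assay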
Description: SANGER: Inhibition of human HCC1395 cell growth in a cell viability assay.

[14] = system: LCLC-103H cell line; assay type: functional, cell-based
Description: SANGER: Inhibition of human LCLC-103H cell growth in a cell viability assay.

[15] = system: SN12C; assay type: functional, cell-based;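 note: growth inhibition of human SN12C cells, measured by a cell viability assay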
Description: SANGER: Inhibition of human SN12C cell growth in a cell viability assay.

[16] = system: COR-L105; assay type: functional, cell-based;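 note: cell growth inhibition determined with a viability assay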
Description: SANGER: Inhibition of human COR-L105 cell growth in a cell viability assay.

[17] = system: HPAF-II; assay type: functional, cell-based;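 note: growth inhibition of HPAF-II cells, read out with a cell viability assay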
Description: SANGER: Inhibition of human HPAF-II cell growth in a cell viability assay.

[18] = system: HuO-3N1; assay type: functional, cell-based;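 note: cell viability readout used to measure how strongly compounds suppress proliferation of human HuO-3N1 cells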
Description: SANGER: Inhibition of human HuO-3N1 cell growth in a cell viability assay.

[19] = system: SK-N-AS; assay type: functional, cell-based;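 note: growth inhibition of human SK-N-AS cells, measured with a cell viability assay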
Description: SANGER: Inhibition of human SK-N-AS cell growth in a cell viability assay.

[20] = system: ChaGo-K-1; assay type: functional, cell-based;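 note: growth inhibition of ChaGo-K-1 cells, read out with a cell viability assay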
Description: SANGER: Inhibition of human ChaGo-K-1 cell growth in a cell viability assay.

[21] = system: NCI-H1792; assay type: functional, cell-based;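 note: growth inhibition of human NCI-H1792 cells, read out as cell viability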
Description: SANGER: Inhibition of human NCI-H1792 cell growth in a cell viability assay.

[22] = system: SBC-5; assay type: functional, cell-based;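 note: cell viability assay read-out, IC50 is the concentration that inhibits growth of the cells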
Description: SANGER: Inhibition of human SBC-5 cell growth in a cell viability assay.

[23] = system: SW837; assay type: functional, cell-based;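 note: growth inhibition of SW837 cells, determined with a cell viability assay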
Description: SANGER: Inhibition of human SW837 cell growth in a cell viability assay.

[24] = system: HOS; assay type: functional, cell-based;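 note: growth inhibition of human HOS cells, read out with a cell viability assay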
Description: SANGER: Inhibition of human HOS cell growth in a cell viability assay.

[25] = system: IGR-1; assay type: functional, cell-based;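 note: growth inhibition of human IGR-1 cells, read out with a cell viability assay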
Description: SANGER: Inhibition of human IGR-1 cell growth in a cell viability assay.

[26] = system: ECC10; assay type: functional, cell-based;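 note: growth inhibition of ECC10 cells, read out by a cell viability assay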
Description: SANGER: Inhibition of human ECC10 cell growth in a cell viability assay.

[27] = system: D-542MG; assay type: functional, cell-based
Description: SANGER: Inhibition of human D-542MG cell growth in a cell viability assay.

[28] = system: NCI-H810; assay type: functional, cell-based;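 note: IC50 reflects inhibition of cancer cell line growth, read out with a cell viability assay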
Description: SANGER: Inhibition of human NCI-H810 cell growth in a cell viability assay.

[29] = system: D-423MG; assay type: functional, cell-based
Description: SANGER: Inhibition of human D-423MG cell growth in a cell viability assay.

[30] = system: SW756; assay type: functional, cell-based;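 note: growth inhibition of human SW756 cells, read out with a cell viability assay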
Description: SANGER: Inhibition of human SW756 cell growth in a cell viability assay.

[31] = system: NB17; assay type: functional, cell-based;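 note: growth inhibition of NB17 cells, read out with a cell viability assay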
Description: SANGER: Inhibition of human NB17 cell growth in a cell viability assay.

[32] = system: HCC1954; assay type: functional, cell-based;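 note: growth inhibition of human HCC1954 cells, read out with a cell viability assay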
Description: SANGER: Inhibition of human HCC1954 cell growth in a cell viability assay.

[33] = system: S-117; assay type: functional, cell-based
Description: SANGER: Inhibition of human S-117 cell growth in a cell viability assay.

[34] = system: NB7; assay type: functional, cell-based;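 note: growth inhibition of NB7 cells, read out with a cell viability assay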
Description: SANGER: Inhibition of human NB7 cell growth in a cell viability assay.

[35] = system: ABC-1; assay type: functional, cell-based;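 note: growth inhibition of human ABC-1 cells, read out by a cell viability assay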
Description: SANGER: Inhibition of human ABC-1 cell growth in a cell viability assay.

[36] = system: HT1197; assay type: functional, cell-based, HT-1197
Description: SANGER: Inhibition of human HT-1197 cell growth in a cell viability assay.

[37] = system: CAL-27; assay type: functional, cell-based;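 note: Viability-based readout, IC50 reflecting inhibition of CAL-27 cell growth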
Description: SANGER: Inhibition of human CAL-27 cell growth in a cell viability assay.

[38] = system: A-431; assay type: functional, cell-based;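 note: growth inhibition of A-431 cells, determined with a cell viability read-out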
Description: SANGER: Inhibition of human A431 cell growth in a cell viability assay.

[39] = system: HCC1419; assay type: functional, cell-based;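 note: growth inhibition of human HCC1419 cells, read out as cell viability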
Description: SANGER: Inhibition of human HCC1419 cell growth in a cell viability assay.

[40] = system: HOP-92; assay type: functional, cell-based;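 note: cell viability readout, with IC50 reflecting inhibition of HOP-92 cell growth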
Description: SANGER: Inhibition of human HOP-92 cell growth in a cell viability assay.

[41] = system: U-251; assay type: functional, cell-based;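 note: growth inhibition of human U-251 cells, read out through a cell viability assay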
Description: SANGER: Inhibition of human U251 cell growth in a cell viability assay.

[42] = system: A549; assay type: functional, cell-based;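 note: growth inhibition of A549 cells, read out with a cell viability assay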
Description: SANGER: Inhibition of human A549 cell growth in a cell viability assay.

[43] = system: LB996-RCC; assay type: functional, cell-based
Description: SANGER: Inhibition of human LB996-RCC cell growth in a cell viability assay.

[44] = system: A253 cell line; assay type: functional, cell-based;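 note: growth inhibition of A253 cells, read out with a cell viability assay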
Description: SANGER: Inhibition of human A253 cell growth in a cell viability assay.

## CC[C@]1(O)C[C@@H]2CN(CCc3c([nH]c4ccccc34)[C@@](C(=O)OC)(c3cc4c(cc3OC)N(C)[C@H]3[C@@](O)(C(=O)OC)[C@H](OC(C)=O)[C@]5(CC)C=CCN6CC[C@]43[C@@H]65)C2)C1 [VINBLASTINE]
[1]
  IC50: 0.00603 µM
[2]
  IC50: 0.023 µM
[3]
  IC50: > 0.1 µM
[4]
  IC50: 0.0195 µM
[5]
  IC50: 0.00239 µM
[6]
  IC50: 0.00745 µM
[7]
  IC50: 0.0151 µM
[8]
  IC50: 0.076 µM
[9]
  IC50: > 0.1 µM
[10]
  IC50: 0.0332 µM
[11]
  IC50: 0.0189 µM
[12]
  IC50: 0.0932 µM
[13]
  IC50: 0.0292 µM
[14]
  IC50: 0.0015 µM
[15]
  IC50: 0.0161 µM
[16]
  IC50: 0.0657 µM
[17]
  IC50: 0.04 µM
[18]
  IC50: 0.00483 µM
[19]
  IC50: 0.00867 µM
[20]
  IC50: 0.00101 µM
[21]
  IC50: 0.00439 µM
[22]
  IC50: 0.00747 µM
[23]
  IC50: > 0.1 µM
[24]
  IC50: 0.00625 µM
[25]
  IC50: 0.00208 µM
[26]
  IC50: 0.0212 µM
[27]
  IC50: > 0.1 µM
[28]
  IC50: 0.0687 µM
[29]
  IC50: 0.00864 µM
[30]
  IC50: 0.0147 µM
[31]
  IC50: 0.0218 µM
[32]
  IC50: > 0.1 µM
[33]
  IC50: 0.00558 µM
[34]
  IC50: > 0.1 µM
[35]
  IC50: 0.0155 µM
[36]
  IC50: 0.0998 µM
[37]
  IC50: 0.00209 µM
[38]
  IC50: > 0.1 µM
[39]
  IC50: 0.0572 µM
[40]
  IC50: 0.0259 µM
[41]
  IC50: 0.00502 µM
[42]
  IC50: 0.00495 µM

## C[C@]1(c2nc3c(C(N)=O)cccc3[nH]2)CCCN1 [VELIPARIB]
[1]
  IC50: > 5 µM
[2]
  IC50: > 5 µM
[3]
  IC50: > 5 µM
[4]
  IC50: > 5 µM
[5]
  IC50: > 5 µM
[6]
  IC50: > 5 µM
[7]
  IC50: > 5 µM
[8]
  IC50: > 5 µM
[9]
  IC50: > 5 µM
[10]
  IC50: > 5 µM
[11]
  IC50: > 5 µM
[12]
  IC50: > 5 µM
[13]
  IC50: > 5 µM
[14]
  IC50: > 5 µM
[15]
  IC50: > 5 µM
[16]
  IC50: > 5 µM
[17]
  IC50: > 5 µM
[18]
  IC50: > 5 µM
[19]
  IC50: > 5 µM
[20]
  IC50: > 5 µM
[21]
  IC50: > 5 µM
[22]
  IC50: > 5 µM
[23]
  IC50: > 5 µM
[24]
  IC50: > 5 µM
[25]
  IC50: > 5 µM
[26]
  IC50: > 5 µM
[27]
  IC50: > 5 µM
[28]
  IC50: > 5 µM
[29]
  IC50: > 5 µM
[30]
  IC50: > 5 µM
[31]
  IC50: > 5 µM
[32]
  IC50: > 5 µM
[33]
  IC50: > 5 µM
[34]
  IC50: > 5 µM
[35]
  IC50: > 5 µM
[36]
  IC50: > 5 µM
[37]
  IC50: > 5 µM
[38]
  IC50: > 5 µM
[39]
  IC50: > 5 µM
[40]
  IC50: > 5 µM
[41]
  IC50: > 5 µM
[42]
  IC50: > 5 µM

## CCCS(=O)(=O)Nc1ccc(F)c(C(=O)c2c[nH]c3ncc(Cl)cc23)c1F [PLX-4720]
[1]
  IC50: > 10 µM
[2]
  IC50: > 10 µM
[3]
  IC50: > 10 µM
[4]
  IC50: > 10 µM
[5]
  IC50: > 10 µM
[6]
  IC50: > 10 µM
[7]
  IC50: > 10 µM
[8]
  IC50: > 10 µM
[9]
  IC50: 6.45 µM
[10]
  IC50: > 10 µM
[11]
  IC50: > 10 µM
[12]
  IC50: > 10 µM
[13]
  IC50: > 10 µM
[14]
  IC50: > 10 µM
[15]
  IC50: > 10 µM
[16]
  IC50: > 10 µM
[17]
  IC50: > 10 µM
[43]
  IC50: > 10 µM
[18]
  IC50: 2.88 µM
[19]
  IC50: > 10 µM
[20]
  IC50: > 10 µM
[21]
  IC50: > 10 µM
[22]
  IC50: > 10 µM
[23]
  IC50: > 10 µM
[24]
  IC50: > 10 µM
[25]
  IC50: > 10 µM
[26]
  IC50: > 10 µM
[27]
  IC50: > 10 µM
[28]
  IC50: > 10 µM
[29]
  IC50: > 10 µM
[30]
  IC50: > 10 µM
[31]
  IC50: > 10 µM
[32]
  IC50: > 10 µM
[33]
  IC50: > 10 µM
[34]
  IC50: 6.21 µM
[35]
  IC50: > 10 µM
[36]
  IC50: > 10 µM
[37]
  IC50: > 10 µM
[38]
  IC50: > 10 µM
[39]
  IC50: > 10 µM
[40]
  IC50: > 10 µM
[41]
  IC50: > 10 µM
[44]
  IC50: > 10 µM
[42]
  IC50: > 10 µM
